Measured values as given in paper PMC7482845, “G10 is a direct activator of human STING” (PLoS ONE, 2020).

How the values were obtained:
[1] = target: T1, R232 variant of human STING (THP-1-Dual KI-hSTING-R232 cells) (Homo sapiens, UniProt Q86WV6, H232R); assay: Western blot of pSTING and pIRF3 in THP1-R232 knock in cells; assay type: cell-based; conditions: immunoblot, 2 hours, R232 STING in HAQ knockout background
T1 construct: host or cells: THP-1-Dual KI-hSTING-R232
Method: HEK293T cells were procured from ATCC. THP-1 and THP-1-Dual KI-hSTING-R232 cells which contained the R232 version of STING was knocked in to THP1 cells in which the HAQ version was ablated, were procured from Invivogen, CA, USA.
(§1) 5 x 10^5 cells were seeded in 24-well plates in 500 μl growth medium and stimulated with novel compounds at 10μM. After 2 hours of treatment cells were harvested by centrifugation and cell pellets were lysed in RIPA buffer (20mM Tris-Cl, 150mM NaCl, 0.5mM EDTA, 1% NP40, 0.05% SDS) containing 1x phosphatase inhibitor cocktail 3 (Sigma) and 1x protease inhibitor (Roche) to extract the soluble fraction of protein. 10 μg of extracted protein was electrophoresed in 10% SDS-PAGE gels and transferred onto Immobilon-P membranes (Millipore). […] Anti-rabbit HRP label secondary antibody (Abcam) and Clarity Max™ western ECL substrate (Biorad—cat# 1705062) were used for visualization of bands using a BioRad XRS plus imager.

TBK1 = TBK1 (Homo sapiens, UniProt Q9UHD2); assay: TBK1 kinase assay in the presence of G10; assay type: biochemical; conditions: S1 Table
Chain of TBK1 (Q9UHD2 whole entry): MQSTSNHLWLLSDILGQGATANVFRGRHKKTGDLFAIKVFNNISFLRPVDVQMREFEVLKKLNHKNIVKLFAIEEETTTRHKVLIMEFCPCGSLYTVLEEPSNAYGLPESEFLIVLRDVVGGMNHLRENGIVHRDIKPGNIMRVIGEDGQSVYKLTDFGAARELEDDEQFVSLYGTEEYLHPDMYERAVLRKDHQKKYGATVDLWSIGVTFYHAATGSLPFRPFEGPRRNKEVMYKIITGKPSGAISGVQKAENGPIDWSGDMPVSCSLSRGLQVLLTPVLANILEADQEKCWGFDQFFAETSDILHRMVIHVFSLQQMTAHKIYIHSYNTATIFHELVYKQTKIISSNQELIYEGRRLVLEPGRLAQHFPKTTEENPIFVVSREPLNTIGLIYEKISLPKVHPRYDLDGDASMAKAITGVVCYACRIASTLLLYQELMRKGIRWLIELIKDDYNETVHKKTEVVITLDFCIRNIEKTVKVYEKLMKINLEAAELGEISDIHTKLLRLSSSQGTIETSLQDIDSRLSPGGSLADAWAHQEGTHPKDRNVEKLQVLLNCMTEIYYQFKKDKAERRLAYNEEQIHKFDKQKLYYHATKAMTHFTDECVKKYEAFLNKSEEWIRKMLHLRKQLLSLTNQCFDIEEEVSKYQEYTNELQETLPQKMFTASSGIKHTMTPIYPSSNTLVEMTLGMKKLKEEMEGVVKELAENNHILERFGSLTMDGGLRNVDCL

[2] = target: T2, mSTING (CT26 cells overexpressing mSTING) (Mus musculus, UniProt Q3TBT3); assay: Western blot of pSTING and pIRF3 in CT26 cells overexpressing mSTING; assay type: cell-based; conditions: immunoblot, 2 hours
T2 construct: expressed in transfected cells; host or cells: CT26
T2 sequence (Q3TBT3 whole entry): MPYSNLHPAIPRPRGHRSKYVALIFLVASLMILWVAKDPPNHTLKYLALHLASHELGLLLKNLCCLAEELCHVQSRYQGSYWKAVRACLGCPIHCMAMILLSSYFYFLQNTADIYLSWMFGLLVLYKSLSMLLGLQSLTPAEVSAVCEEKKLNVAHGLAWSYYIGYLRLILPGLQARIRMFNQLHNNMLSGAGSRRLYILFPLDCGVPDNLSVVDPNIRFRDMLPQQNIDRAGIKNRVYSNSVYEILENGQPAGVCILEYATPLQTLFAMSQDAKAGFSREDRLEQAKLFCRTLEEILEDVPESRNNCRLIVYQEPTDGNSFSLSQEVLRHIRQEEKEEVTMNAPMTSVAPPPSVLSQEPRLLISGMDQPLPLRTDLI
Method: as §1

T1 sequence (Q86WV6 whole entry H232R): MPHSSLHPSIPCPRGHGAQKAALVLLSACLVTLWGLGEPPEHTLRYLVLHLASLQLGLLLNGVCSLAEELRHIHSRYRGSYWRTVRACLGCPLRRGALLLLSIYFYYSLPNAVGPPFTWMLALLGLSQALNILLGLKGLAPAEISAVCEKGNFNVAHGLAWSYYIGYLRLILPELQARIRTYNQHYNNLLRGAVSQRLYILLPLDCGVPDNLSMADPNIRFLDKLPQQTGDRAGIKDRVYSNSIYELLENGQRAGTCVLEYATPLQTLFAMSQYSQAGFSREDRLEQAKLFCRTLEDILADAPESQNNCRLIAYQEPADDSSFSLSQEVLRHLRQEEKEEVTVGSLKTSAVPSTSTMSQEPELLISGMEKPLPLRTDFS

Structure (SMILES): O=C(NCc1ccco1)c1ccc2c(c1)N(Cc1c(F)cccc1Cl)C(=O)CS2 [Compound G10, 4-(2-Chloro-6-fluorobenzyl)-N-(furan-2-ylmethyl)-3-oxo-3,4-dihydro-2H-benzo[b][1,4]thiazine-6-carboxamide]
- phosphorylation of STING and IRF3 in THP1-R232 cells [1]: led to phosphorylation of STING and IRF3
- effect on TBK-1 enzyme (TBK1): does not inhibit or activate
- phosphorylation of mSTING or mIRF3, CT26 cells overexpressing mSTING [2]: did not lead to phosphorylation
